#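 Each compound was tested at five concentrations against cells in 96-well plates for 48 hours. At the GI50, growth is halved. TGI is the concentration that stops growth completely.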
# Test system: MDA-MB-468 breast
# Assay: NCI-60 cell line screen, 48 h
Compound,GI50 [µM],TGI [µM]
CC(C)Oc1cc2c(cc1O)CC[C@@H]1[C@@H]2CC[C@]2(C)[C@@H](O)CC[C@@H]12,4.16,25.6
COc1ccccc1-[n+]1cc(-c2ccc(-c3ccccc3)cc2)n2c1CCCCC2,,0.838
NC(=O)c1cnc(N[C@@H]2CCCC[C@@H]2N)nc1Nc1cccc(-n2nccn2)c1,3.27,11.5
C1CC[N-]CC1.C1CC[N-]CC1.C1CC[N-]CC1.C1CC[N-]CC1.[Cl][Rh][Cl],2.17,15.3
Cc1c(C#N)cccc1-c1cc(-c2cn(Cc3cccc(C(C)(C)O)n3)nn2)nc(N)n1,7.58,55.6
CC(C)(C)N1CCC1C(N)=O (configuration not stated),> 100,> 100
CCN(Cc1cccc(OC)c1)c1ccc(CO)c(Cl)c1,0.0174,0.0456
N#Cc1c(C(=O)c2ccccc2)cnn1-c1ccccc1,> 25,> 25
Oc1ccc(Cc2ccc(O)c3ncccc23)c2cccnc12,0.278,0.902
CC(=O)OC[C@H]1O[C@@H](n2ccc(=O)[nH]c2=O)[C@H](OC(C)=O)[C@@H]1OC(C)=O,> 100,> 100
CC1=C([Se]CC(OC(=O)CC[Se]c2ccccc2)C(=O)NCCCCCC(=O)OCc2ccccc2)C(=O)c2ccccc2C1=O (configuration not stated),1.93,4.63
C=C1C(=O)O[C@H]2[C@H]1CC/C(COC(=O)NCc1cc3ccccc3[nH]1)=C\CC[C@@]1(C)O[C@@H]21,1.06,3.4
Cc1cn(C2CC(F)C(CO)O2)c(=O)[nH]c1=O (configuration not stated),> 100,> 100
C[C@]12CCC3[C@@H](C[C@@H]4SC(Nc5ccccc5)=N[C@@]45CC(=O)CC[C@]35C)[C@@H]1CCC2=O (some centres not stated),3.59,14.6
COCCn1cc(-c2csc(-c3c[nH]c4ccccc34)n2)c2cccnc21,0.974,6.68
C(=N\Nc1ccccn1)/c1ccccn1,0.237,0.748
C=C1[C@@H](C)[C@H]2[C@H](Cc3ccccc3)NC(=O)[C@]23OC(=O)/C=C/[C@H](O)CCC[C@@H](C)C/C=C/[C@H]3[C@@H]1O,1.86,> 100
C#Cc1cccc(Nc2ncnc3cc(OCCOC)c(OCCOC)cc23)c1,0.124,2.81
O=C(/C=C/c1cccnc1)NCCCCC1CCN(C(=O)c2ccccc2)CC1,27.5,> 100

# Reference: PubChem BioAssay (NCI)
